Data reported in PubChem BioAssay (NCI).
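Where inhibition never reached the appropriate level, the endpoint shown equals the highest concentration tested. Otherwise, values were interpolated linearly from a five-concentration, 48-hour dose response in 96-well plates. The concentration for 50% growth inhibition is given as GI50. The concentration for full growth arrest is given as TGI.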

What was measured:
Assay in all cases: inhibition of tumour cell growth, NCI panel, 48 h
[1] = system: OVCAR-3 ovarian
[2] = system: A549 NSCLC
[3] = system: NCI-H522 lung
[4] = system: SK-OV-3 ovarian
[5] = system: HCC-2998 colon
[6] = system: U251 CNS
[7] = system: NCI-H23 lung
[8] = system: MDA-MB-231 breast
[9] = system: MOLT-4 leukemia
[10] = system: SK-MEL-28 melanoma

Row | SMILES | TGI [1] [µM] | TGI [2] [µM] | TGI [3] [µM] | TGI [4] [µM] | TGI [5] [µM] | TGI [6] [µM] | TGI [7] [µM] | TGI [8] [µM] | TGI [9] [µM] | TGI [10] [µM] | GI50 [1] [µM] | GI50 [2] [µM] | GI50 [3] [µM] | GI50 [4] [µM] | GI50 [5] [µM] | GI50 [6] [µM] | GI50 [7] [µM] | GI50 [8] [µM] | GI50 [9] [µM] | GI50 [10] [µM]
1 | COc1ccc2c(c1)CCc1c(-c3noc4c3CCc3cc(OC)ccc3-4)noc1-2 | > 100 | > 100 | > 100 | > 100 | > 100 | > 100 | > 100 | > 100 | > 100 | > 100 |  |  |  |  |  |  |  |  |  | 
2 | NC1=C(Cl)C(=O)c2ccc(S(N)(=O)=O)cc2C1=O | 0.454 | 0.358 | 0.403 | 3.11 | 2.06 | 0.871 | 0.517 | 2.7 | 3.22 | 0.565 | 0.198 | 0.16 | 0.189 | 1.67 | 0.775 | 0.184 | 0.176 | 0.332 | 0.515 | 0.247
3 | O=C(O)C1NCCc2c1[nH]c1ccccc21 (stereo not drawn) | > 100 | > 100 | > 100 | > 100 | > 100 | > 100 | > 100 | > 10 | > 100 | > 100 | > 100 | > 100 | > 100 | > 100 | > 100 | > 100 | > 100 |  | > 100 | > 100
4 | C=C1C(=O)O[C@H]2[C@H]1CC/C(COC(=O)CCCCCCCCC(=O)OC/C1=C/CC[C@@]3(C)O[C@H]3[C@H]3OC(=O)C(=C)[C@@H]3CC1)=C\CC[C@@]1(C)O[C@@H]21 | 3.11 | 22.1 | 4.04 | 25.2 | 3.58 | 3.82 | 4.25 | 3.79 | 13.7 | 6.04 | 1.67 | 6.63 | 2.12 | 12 | 1.9 | 1.96 | 2 | 1.92 | 2.58 | 2.34
5 | c1cc(OCCN2CCCCCC2)ccc1CNc1ccc2nc(CCC3CCCCC3)[nH]c2c1 | 4.25 | 11 | 4.34 | 4.84 | 3.98 | 3.17 | 6.62 | 2.97 | 6.74 |  | 1.89 | 3.05 | 1.97 | 2.18 | 1.99 | 1.6 | 2.36 | 1.56 | 1.69 | 
6 | COc1ccc(-c2cnc3ccnn3c2-c2cc(OC)c(OC)c(OC)c2)cc1 | 7.91 | > 100 | > 100 | > 100 | > 100 | > 100 | > 100 | 65.7 | > 100 | > 100 | 2.51 | 3.85 | 0.857 | 4.63 | 3.79 | 4.64 | 8.29 | 4.3 | 4.62 | 10
7 | O=c1cc(-c2ccc(Cl)cc2)[nH]c2ncccc12 | 73.8 | > 100 | > 100 | > 100 | > 100 | > 100 | > 100 | > 100 | > 100 | > 100 | 23.4 |  |  |  |  |  |  |  |  | 
8 | C=C1C(=O)O[C@H]2[C@H]1CC/C(Cn1cc(Cn3ccc4ccccc43)nn1)=C\CC[C@@]1(C)O[C@@H]21 | 3.01 | 27.4 | 2.69 | 30.1 | 3.66 | 12.1 | 6.49 | 2.84 | 5.11 | 3.25 | 1.62 | 13.1 | 1.27 | 16 | 1.93 | 3.42 | 2.5 | 1.31 | 1.48 | 1.67
9 | CCOC(=O)c1c(C)nc2ccc(Cl)cc2c1-c1ccccc1 | 43.1 | > 100 | 36.6 | 45.6 | 46.9 | 40.6 | > 100 | 38.4 | 43.4 | 52.4 | 19 | 25.6 | 14.2 | 19.1 | 19.4 | 19.1 | 28.7 | 17.1 | 16.3 | 19.6
10 | CN(C)CCCN(c1nc(C(Cl)(Cl)Cl)ns1)c1nc(C(Cl)(Cl)Cl)ns1 | 4.09 | 3.78 | 3.45 | 4 | 3.31 | 3.22 | 5.55 | 2.6 | 4.23 | 3.5 | 2.01 | 1.63 | 1.71 | 1.88 | 1.69 | 1.76 | 2.04 | 1.19 | 1.93 | 1.9
11 | COc1cc(C#N)cc(OC)c1OCCOCCOc1c(OC)cc(C#N)cc1OC | > 100 | > 100 | > 100 | > 100 | > 100 | > 100 | > 100 | > 100 | > 100 | > 100 | > 100 | > 100 | 31.2 | > 100 | > 100 | > 100 | > 100 | 88.9 | 21.3 | > 100
12 | O=C1N=C(c2ccccc2)OC1C(=O)c1ccccc1 (stereo not drawn) | > 100 | > 100 | > 100 | > 100 | > 100 | > 100 | > 100 | > 100 | > 100 | > 100 |  |  |  |  |  |  |  |  |  | 
13 | C=C1C(=O)O[C@@H]2C(=O)[C@@H](C)[C@@H]3C=CC(=O)[C@@]3(C)[C@@H](OC(=O)/C(C)=C\C)[C@H]12 | 3.67 | 32.6 | 0.25 | 26.9 | 3.23 | 6.67 | 9.8 | 3.6 | 2.65 | 1.01 |  |  |  |  |  |  |  |  |  | 
